Measurements: US10150728B2, “Alkylene derivatives” (Shionogi & Co., Ltd., priority 2013, dated 2018)

Target: recombinant human ACC2 (Homo sapiens (Human), UniProt O00763)
Assay: Measurement of inhibitory activity on human ACC2 (MALDI-TOF MS, acetyl CoA to malonyl CoA conversion)
Assay type: biochemical
Conditions: Table 154
Description: Preparation 1: Preparation of Recombinant Human ACC2
After a cDNA encoding human ACC2 (27 amino acid residue to 2458 amino acid residues from the N-terminus) was cloned from human kidney cDNA library (Clontech), human ACC2 gene containing His-tag sequence at 5′ terminus was inserted into pFastBac1 (Invitrogen). Recombinant baculovirus was generated using Bac-to-Bac baculovirus expression system (Invitrogen) according to the manufacturer's protocol. To express human ACC2, Sf-9 cells were infected with recombinant baculovirus. After infected cells were disrupted, the filtrated lysate was subjected to Ni-affinity chromatography and anion-exchange chromatography. The fractions containing human ACC2 protein were pooled as recombinant human ACC2 solution.
The Measurement of Inhibitory Activity on Human ACC1 and the ACC2
Recombinant human ACC1 and recombinant human ACC2, which were prepared by the method mentioned above, were preincubated with assay buffer solution (50 mM HEPES-KOH (pH 7.4), 10 mM magnesium chloride, 6-10 mM potassium citrate, 4 mM reduced form of glutathione, 1.5 mg/ml bovine serum albumin) for one hour. Then, 0.2 μL of each this invention compound solution (in DMSO) were dispensed to 384-well microplate, 5 μL of the preincubated enzyme solution and 5 μL of substrate solution (50 mM HEPES-KOH (pH 7.4), 1 mM ATP, 0.8 mM acetyl CoA and 25-50 mM potassium bicarbonate) were added to microplate. After centrifugation and shaking, the reaction mixtures were incubated in a humidified box at room temperature for 1 to 3 hours. After the incubation, the enzyme reactions were stopped by the addition of EDTA. Then, after the samples were cocrystallized with CHCA (α-cyano-4-hydroxy cinnamic acid) matrices on MALDI target plate, by using the matrix assist laser […] time-of-flight mass spectrometer (MALDI-TOF MS), samples were measured in reflector negative mode. Deprotonated ions of acetyl CoA (AcCoA) of substrate and malonyl CoA (MalCoA) of the reaction product were detected, then, the conversion rates of acetyl CoA to malonyl CoA was calculated by the intensity of [MalCoA-H]−/(Intensity of [MalCoA-H]−+Intensity of [AcCoA-H]−) using each signal strength. […] In addition, potassium citrate concentrations in assay buffer solution, potassium hydrogen carbonate concentrations in substrate solution and incubation time were adjusted by each lot of enzyme.

recombinant human ACC2, sequence (O00763 27-2458): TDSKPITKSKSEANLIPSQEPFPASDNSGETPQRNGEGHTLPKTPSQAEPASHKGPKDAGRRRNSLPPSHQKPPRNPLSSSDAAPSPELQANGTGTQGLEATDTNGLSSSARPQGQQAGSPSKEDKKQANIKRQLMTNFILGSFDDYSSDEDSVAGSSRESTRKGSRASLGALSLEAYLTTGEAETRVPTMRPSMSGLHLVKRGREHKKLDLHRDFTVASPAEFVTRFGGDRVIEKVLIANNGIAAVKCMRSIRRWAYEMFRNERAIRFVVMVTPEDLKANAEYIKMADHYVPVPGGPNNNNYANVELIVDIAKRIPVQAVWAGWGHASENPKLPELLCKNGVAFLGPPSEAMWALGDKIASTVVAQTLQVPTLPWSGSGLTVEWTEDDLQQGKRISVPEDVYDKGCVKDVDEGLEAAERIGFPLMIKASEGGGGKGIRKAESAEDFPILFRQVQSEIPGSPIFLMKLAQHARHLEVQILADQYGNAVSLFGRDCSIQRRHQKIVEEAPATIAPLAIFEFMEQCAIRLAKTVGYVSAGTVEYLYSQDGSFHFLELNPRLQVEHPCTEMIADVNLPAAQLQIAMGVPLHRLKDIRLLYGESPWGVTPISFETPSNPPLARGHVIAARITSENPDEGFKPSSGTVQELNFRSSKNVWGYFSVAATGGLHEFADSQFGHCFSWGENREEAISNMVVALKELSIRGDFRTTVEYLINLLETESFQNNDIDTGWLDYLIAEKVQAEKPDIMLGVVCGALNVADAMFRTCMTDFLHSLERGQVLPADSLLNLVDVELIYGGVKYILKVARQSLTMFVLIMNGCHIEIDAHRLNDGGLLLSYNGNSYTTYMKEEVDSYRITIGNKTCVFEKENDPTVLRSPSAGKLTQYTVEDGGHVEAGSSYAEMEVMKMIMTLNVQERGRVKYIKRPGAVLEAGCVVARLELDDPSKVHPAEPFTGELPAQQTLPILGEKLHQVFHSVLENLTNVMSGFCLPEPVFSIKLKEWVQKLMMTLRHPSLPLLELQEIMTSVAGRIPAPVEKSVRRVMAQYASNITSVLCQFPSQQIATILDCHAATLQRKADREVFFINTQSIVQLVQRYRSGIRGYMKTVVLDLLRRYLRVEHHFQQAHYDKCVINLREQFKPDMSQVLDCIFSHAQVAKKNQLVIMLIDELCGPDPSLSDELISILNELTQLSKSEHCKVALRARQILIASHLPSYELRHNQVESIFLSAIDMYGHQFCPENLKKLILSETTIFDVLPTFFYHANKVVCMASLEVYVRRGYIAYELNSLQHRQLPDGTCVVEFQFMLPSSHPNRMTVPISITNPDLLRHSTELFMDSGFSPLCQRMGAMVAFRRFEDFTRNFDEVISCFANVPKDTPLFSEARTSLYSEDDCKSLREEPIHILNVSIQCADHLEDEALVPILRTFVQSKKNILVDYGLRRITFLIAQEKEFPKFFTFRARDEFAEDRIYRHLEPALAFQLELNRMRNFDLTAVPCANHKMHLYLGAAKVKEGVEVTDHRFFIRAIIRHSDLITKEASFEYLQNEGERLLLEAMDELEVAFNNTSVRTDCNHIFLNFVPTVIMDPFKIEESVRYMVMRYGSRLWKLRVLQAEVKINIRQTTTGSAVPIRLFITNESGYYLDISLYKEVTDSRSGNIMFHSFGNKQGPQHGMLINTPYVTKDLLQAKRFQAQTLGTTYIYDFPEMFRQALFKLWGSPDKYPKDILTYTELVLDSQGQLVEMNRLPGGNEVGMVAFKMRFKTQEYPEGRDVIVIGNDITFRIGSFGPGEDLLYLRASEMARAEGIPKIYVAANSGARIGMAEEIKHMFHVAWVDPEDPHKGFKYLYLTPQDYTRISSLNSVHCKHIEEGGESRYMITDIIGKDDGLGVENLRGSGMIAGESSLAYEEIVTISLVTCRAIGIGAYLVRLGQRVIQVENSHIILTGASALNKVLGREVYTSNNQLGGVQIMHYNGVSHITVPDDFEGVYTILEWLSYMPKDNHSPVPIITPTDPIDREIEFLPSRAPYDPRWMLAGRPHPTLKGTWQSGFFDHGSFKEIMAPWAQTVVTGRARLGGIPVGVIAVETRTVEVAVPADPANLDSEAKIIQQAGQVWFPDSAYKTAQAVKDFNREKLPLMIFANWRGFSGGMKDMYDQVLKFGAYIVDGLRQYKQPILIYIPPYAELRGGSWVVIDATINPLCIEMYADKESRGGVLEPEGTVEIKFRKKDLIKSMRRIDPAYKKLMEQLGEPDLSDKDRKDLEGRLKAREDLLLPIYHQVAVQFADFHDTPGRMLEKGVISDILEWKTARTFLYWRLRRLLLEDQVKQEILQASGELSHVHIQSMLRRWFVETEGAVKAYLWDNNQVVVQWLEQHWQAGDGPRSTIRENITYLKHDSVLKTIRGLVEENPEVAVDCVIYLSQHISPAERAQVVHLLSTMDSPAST

| Compound | IC50 [nM] |
| --- | --- |
| CCCc1ccc(Oc2ccc(OC[C@H](C)NC(C)=O)cn2)c(Cl)c1 [Compound I-004] | 3730 |
| CCCc1ccc(Oc2ccc(OC[C@H](C)NC(C)=O)cc2)c(Cl)c1 [Compound I-005] | 184 |
| CCCc1ccc(Oc2ccc(OC[C@H](C)NC(N)=O)cc2)c(Cl)c1 [Compound I-006] | 348 |
| CCCc1ccc(Oc2ccc(OC[C@H](C)NC(=O)NCC)cc2)c(Cl)c1 [Compound I-007] | 1390 |
| CC(=O)N[C@@H](C)CC(=O)c1ccc(Oc2ccc(OCC3CC3)cc2Cl)nc1 [Compound I-008] | 220 |
| CCCc1ccc(Oc2ccc(C(=O)C[C@H](C)NC(C)=O)nc2)c(Cl)c1 [Compound I-009] | 1060 |
| CCCc1ccc(Oc2ccc(OCC[C@H](C)NC(C)=O)cc2)c(Cl)c1 [Compound I-010] | 1010 |
| CCCc1ccc(Oc2ccc(O[C@@H](C)[C@H](C)NC(C)=O)nc2)c(Cl)c1 [Compound I-011] | 120 |
| CC(=O)N[C@@H](C)COc1ccc(Oc2ccc3nc(C(C)C)sc3c2Cl)cn1 [Compound I-012] | 64 |
| CC(=O)N[C@@H](C)COc1ccc(Oc2ccc3nc(C(C)C)sc3c2C#N)cn1 [Compound I-013] | 395 |
| CC(=O)N[C@@H](C)[C@H](C)Oc1ccc(Oc2ccc3nc(C(C)C)sc3c2Cl)cn1 [Compound I-014] | 759 |
| CCC(C)(C)c1ccc(Oc2ccc(OC[C@H](C)NC(C)=O)nc2)c(Cl)c1 [Compound I-016] | 400 |
| CC(=O)N[C@@H](C)COc1ccc(Oc2ccc3nc(C(C)C)sc3c2F)cn1 [Compound I-018] | 75 |
| CCCc1ccc(Oc2cnc(OC[C@H](C)NC(C)=O)cn2)c(Cl)c1 [Compound I-021] | 502 |
| CC(=O)N[C@@H](C)COc1ccc(Oc2ccc3c(c2Cl)CCN(C(=O)OC(C)(C)C)C3)cn1 [Compound I-022] | 1250 |
| CC(=O)N[C@@H](C)COc1ccc(Oc2ccc3c(c2Cl)CCN(c2ncc(F)cn2)C3)cn1 [Compound I-023] | 38 |
| CC(C)c1nc2ccc(Oc3ccc(OC[C@H](C)NC(N)=O)nc3)c(Cl)c2s1 [Compound I-024] | 133 |
| CC(C)c1nc2ccc(Oc3ccc(OC[C@H](C)NC(=O)CO)nc3)c(Cl)c2s1 [Compound I-025] | 652 |
| CC(=O)N[C@@H](C)COc1cnc(Oc2ccc3nc(C(C)C)sc3c2F)cn1 [Compound I-026] | 20 |
| CC(=O)N[C@@H](C)COc1cnc(Oc2ccc3nc(C(C)(C)O)sc3c2Cl)cn1 [Compound I-027] | 378 |
| CC(=O)N[C@@H](C)COc1cnc(Oc2ccc3nc(C(C)(F)F)sc3c2Cl)cn1 [Compound I-028] | 28 |
| CC(=O)N[C@@H](C)COc1ccc(Oc2cc(F)c3nc(C(C)C)sc3c2Cl)cn1 [Compound I-029] | 68 |
| CC(=O)N[C@@H](C)COc1cnc(Oc2ccc3nc(C(C)C)oc3c2F)cn1 [Compound I-031] | 52 |
| CC(=O)N[C@@H](C)COc1cnc(Oc2c(F)cc3nc(C(C)C)sc3c2F)cn1 [Compound I-032] | 52 |
| CCC(F)(F)c1nc2ccc(Oc3cnc(OC[C@H](C)NC(C)=O)cn3)c(Cl)c2s1 [Compound I-033] | 50 |
| CC(=O)N[C@@H](C)COc1cnc(Oc2ccc3nc(C4CC4)sc3c2F)cn1 [Compound I-034] | 49 |
| CC(=O)N[C@@H](C)COc1cnc(Oc2ccc3nc(C4(C)CC4)sc3c2Cl)cn1 [Compound I-035] | 102 |
| CC(=O)N[C@@H](C)COc1cnc(Oc2ccc3nc(C(C)(F)F)sc3c2F)cn1 [Compound I-036] | 15 |

Further lines, results first:

| IC50 [nM] | Compound |
| --- | --- |
| 72 | CC(=O)N[C@@H](C)COc1cnc(Oc2ccc3nc(C(C)C)sc3c2Cl)cn1 [Compound I-038] |
| 16 | CCOc1nc2ccc(Oc3cnc(OC[C@H](C)NC(C)=O)cn3)c(Cl)c2s1 [Compound I-039] |
| 102 | CC(=O)N[C@@H](C)COc1cnc(Oc2ccc3nc(C(C)(F)F)sc3c2C#N)cn1 [Compound I-041] |
| 15 | CC(=O)N[C@@H](C)CO[C@H]1CC[C@H](Oc2ccc3nc(C(C)C)sc3c2F)CC1 [Compound I-042] |
| 93 | CC(=O)N[C@@H](C)COc1cnc(Oc2ccc3nc(C(C)(F)F)oc3c2F)cn1 [Compound I-043] |
| 756 | CC(=O)N[C@@H](C)CO[C@H]1CC[C@@H](Oc2ccc3nc(C(C)C)sc3c2F)CC1 [Compound I-044] |
| 8 | CCOc1nc2ccc(Oc3cnc(OC[C@H](C)NC(C)=O)cn3)c(F)c2s1 [Compound I-045] |
| 213 | CC(=O)N[C@@H](C)CO[C@H]1CC[C@H](Oc2ccc3nc(C(C)C)sc3c2Cl)CC1 [Compound I-046] |
| 336 | CC(=O)N[C@@H](C)CO[C@H]1CC[C@H](Oc2ccc3nc(C(C)(C)O)sc3c2Cl)CC1 [Compound I-047] |
| 83 | CC(=O)N[C@@H](C)[C@H](C)Oc1cnc(Oc2ccc3nc(C(C)C)sc3c2F)cn1 [Compound I-048] |
| 134 | CC(=O)N[C@@H](C)[C@@H](C)Oc1cnc(Oc2ccc3nc(C(C)C)sc3c2F)cn1 [Compound I-049] |
| 10 | CC(=O)N[C@@H](C)COc1cnc(Oc2ccc3nc(C4(F)CC4)sc3c2F)cn1 [Compound I-050] |
| 84 | CC(=O)N[C@@H](C)CO[C@H]1CC[C@H](Oc2ccc3nc(C(C)C)sc3c2C#N)CC1 [Compound I-051] |
| 265 | CC(=O)N[C@@H](C)CO[C@H]1CC[C@H](Oc2ccc3nc(C(C)(F)F)sc3c2Cl)CC1 [Compound I-052] |
| 12 | CC(=O)N[C@@H](C)CO[C@H]1CC[C@H](Oc2ccc3nc(C(C)(F)F)sc3c2F)CC1 [Compound I-053] |
| 15 | CCOc1nc2ccc(O[C@H]3CC[C@H](OC[C@H](C)NC(C)=O)CC3)c(Cl)c2s1 [Compound I-054] |
| 13 | CCOc1nc2ccc(O[C@H]3CC[C@H](OC[C@H](C)NC(C)=O)CC3)c(F)c2s1 [Compound I-055] |
| 57 | CC(=O)N[C@@H](C)[C@H](C)Oc1cnc(Oc2ccc3nc(C(C)(F)F)sc3c2F)cn1 [Compound I-056] |
| 166 | CC(=O)N[C@@H](C)[C@@H](C)Oc1cnc(Oc2ccc3nc(C(C)(F)F)sc3c2F)cn1 [Compound I-057] |
| 29 | CCOc1nc2ccc(Oc3cnc(O[C@@H](C)[C@H](C)NC(C)=O)cn3)c(F)c2s1 [Compound I-059] |
| 115 | CCOc1nc2ccc(Oc3cnc(O[C@H](C)[C@H](C)NC(C)=O)cn3)c(F)c2s1 [Compound I-061] |
| 24 | CC(=O)N[C@@H](C)CO[C@H]1CC[C@H](Oc2ccc3nc(C(C)C)oc3c2F)CC1 [Compound I-062] |
| 128 | CCc1nsc2c(Cl)c(Oc3cnc(OC[C@H](C)NC(C)=O)cn3)ccc12 [Compound I-063] |
| 1120 | CC(=O)N[C@@H](C)CO[C@H]1CC[C@H](Oc2ccc3nc(C(C)C)oc3c2Cl)CC1 [Compound I-064] |
| 89 | CCOc1nc2cc(Cl)c(Oc3cnc(OC[C@H](C)NC(C)=O)cn3)cc2s1 [Compound I-065] |
| 1300 | CC(=O)N[C@@H](C)CO[C@H]1CC[C@H](Oc2ccc3sc(C(C)C)nc3c2Cl)CC1 [Compound I-066] |
| 25 | CCOc1nc2ccc(Oc3cnc(OC[C@H](C)NC(C)=O)cn3)c(C#N)c2s1 [Compound I-068] |
| 1400 | CCOc1ncc2c(Cl)c(Oc3cnc(OC[C@H](C)NC(C)=O)cn3)ccc2n1 [Compound I-069] |
